Drawing on patent US8828401B2, “Cytotoxic peptides and antibody drug conjugates thereof” (Pfizer Inc., priority 2011, dated 2014), this text covers IC50 for 16 compounds.

Starred links: 1 amine or outer side, 2 acyl side, 3 side chain; linkers in the order of their positions; H or OH if unused. Non-standard residues stand in square brackets, D forms with d. Residues, ends and D or L forms follow the SMILES beside them. *: point of attachment. Dolaproine = CO[C@@H]([C@@H]1CCCN1)[C@@H](C)C(=O)O; X5 = O=C([C@@H](N[*:1])C1(c2ccccc2)CC1)[*:2]; Dil = CC[C@H](C)[C@H](NC)[C@@H](CC(=O)O)OC; NMeαMePro = CN1CCC[C@@]1(C)C(=O)*; N(CH2CH2)2NH = C1CN(*)CCN1; X1 = CN1CCC[C@]1(C)C(=O)*; Aib = CC(C)(N)C(=O)O; X3 = C1C2CC1(N*)C2; OtBu = CC(C)(C)O* A value given as a limit tells only on which side of the number the result lay.

As a reminder, the IC50 is the concentration that inhibits the measured activity by half.

Experiment in all cases: In vitro cell assay, MTS cell viability 96 hours after treatment
Format in all cases: cell-based

For one experiment, the system named is BT474 (breast cancer). The following applies: Homo sapiens, BT-474, BT474 cells; geometric mean; cytotoxic peptides; read-out: BT474 GMEAN IC50. The procedure, abridged: (§1)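 Relative viability, calculated as percent of untreated control, came from an MTS colorimetric assay after 96 hours of exposure to serially diluted conjugates or unconjugated drugs.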
The test system of experiment [1] is MDA-MB-361-DYT2 (breast cancer). The settings on record: read-out: MDA-MB-361-DYT2 GMEAN IC50, MDA-MB-361-DYT2 cells; geometric mean; cytotoxic peptides. The method, boiled down:
as §1

In a further experiment the test system is N87 (gastric cancer). The settings on record: read-out: N87 GMEAN IC50, N87 cells; geometric mean; cytotoxic peptides. The method, boiled down: as §1

In the case of `CC[C@H](C)[C@@H]([C@@H](CC(=O)N1CCC[C@H]1[C@H](OC)[C@@H](C)C(=O)NC12CC(C1)C2)OC)N(C)C(=O)[C@@H](NC(=O)C(C)(C)N)C(C)C` [#221] (H-[Aib]V[Dil][Dolaproine]-X3), the IC50 with BT474 (breast cancer) stood at 32.4 nM; in experiment [1] it was 65.4 nM; with N87 (gastric cancer), 87.9 nM.
As to `CC[C@H](C)[C@@H]([C@@H](CC(=O)N1CCC[C@H]1[C@H](OC)[C@@H](C)C(=S)N[C@@H](Cc1ccccc1)c1nccs1)OC)N(C)C(=O)[C@@H](NC(=O)C(C)(C)NC)C(C)C` [#84, N,2-dimethylalanyl-N-[(3R,4S,5S)-3-methoxy-1-{(2S)-2-[(1R,2R)-1-methoxy-2-methyl-3-{[(1S)-2-phenyl-1-(1,3-thiazol-2-yl)ethyl]amino}-3-thioxopropyl]pyrrolidin-1-yl}-5-methyl-1-oxoheptan-4-yl]-N-methyl-L-valinamide], the values for the IC50 (in the experiment on BT474 (breast cancer); in experiment [1]; in the experiment on N87 (gastric cancer)) were 0.246 nM, 0.686 nM and 0.426 nM, respectively.
In the case of `CC[C@H](C)[C@@H]([C@@H](CC(=O)N1CCC[C@H]1[C@H](OC)[C@@H](C)C(=O)N[C@H](C(=O)OC)C1(c2ccccc2)CC1)OC)N(C)C(=O)[C@@H](NC(=O)C(C)(C)N)C(C)C` [#223] (H-[Aib]V[Dil][Dolaproine][X5]-OMe), the IC50 in the experiment with BT474 (breast cancer) worked out at 7.59 nM; in experiment [1], 10.9 nM; in the experiment with N87 (gastric cancer), 13 nM.
Consider `CC[C@H](C)[C@@H]([C@@H](CC(=O)N1CCC[C@H]1[C@H](OC)[C@@H](C)C(=O)N[C@@H](Cc1ccccc1)c1nccs1)OC)N(C)C(=O)[C@@H](NC(=O)C(C)(C)CNC)C(C)C` [#154, N˜2˜-[2,2-dimethyl-3-(methylamino)propanoyl]-N-{(1S,2R)-2-methoxy-4-{(2S)-2-[(1R,2R)-1-methoxy-2-methyl-3-oxo-3-{[(1S)-2-phenyl-1-(1,3-thiazol-2-yl)ethyl]amino}propyl]pyrrolidin-1-yl}-1-[(1S)-1-methylpropyl]-4-oxobutyl}-N-methyl-L-valinamide], for which the IC50 amounted to 0.193 nM in the experiment with BT474 (breast cancer), 0.198 nM in experiment [1] and 0.572 nM in the experiment on N87 (gastric cancer).
In the case of `CC[C@H](C)[C@@H]([C@@H](CC(=O)N1CCC[C@H]1[C@H](OC)[C@@H](C)C(=O)N[C@@H](Cc1ccccc1)C(=O)OC)OC)N(C)C(=O)[C@@H](NC(=O)[C@]1(C)CCCN1C)C(C)C` [#209, 1,2-dimethyl-L-prolyl-N-[(3R,4S,5S)-3-methoxy-1-{(2S)-2-[(1R,2R)-1-methoxy-3-{[(2S)-1-methoxy-1-oxo-3-phenylpropan-2-yl]amino}-2-methyl-3-oxopropyl]pyrrolidin-1-yl}-5-methyl-1-oxoheptan-4-yl]-N-methyl-L-valinamide] (NMeαMePro-V[Dil][Dolaproine]F-OMe), the IC50 in the experiment with BT474 (breast cancer) amounted to 0.067 nM; in experiment [1], 0.058 nM; with N87 (gastric cancer) it was 0.067 nM.
In the case of `CC[C@H](C)[C@@H]([C@@H](CC(=O)N1CCC[C@H]1[C@H](OC)[C@@H](C)C(=O)NCCC1C=CC=CC=C1)OC)N(C)C(=O)[C@@H](NC(=O)[C@]1(C)CCCCN1)C(C)C` [#178, (2S)-N-[(2S)-1-{[(3R,4S,5S)-1-{(2S)-2-[(1R,2R)-3-{[2-(cyclohepta-2,4,6-trien-1-yl)ethyl]amino}-1-methoxy-2-methyl-3-oxopropyl]pyrrolidin-1-yl}-3-methoxy-5-methyl-1-oxoheptan-4-yl](methyl)amino}-3-methyl-1-oxobutan-2-yl]-2-methylpiperidine-2-carboxamide], the IC50 came out at 0.968 nM in the experiment with BT474 (breast cancer), 0.911 nM in experiment [1] and 1.26 nM in the experiment with N87 (gastric cancer).
For the compound `CC[C@H](C)[C@@H]([C@@H](CC(=O)N1CCC[C@H]1[C@H](OC)[C@@H](C)C(=O)NCCC1C=CC=CC=C1)OC)N(C)C(=O)[C@@H](NC(=O)[C@@]1(F)CCNC1)C(C)C` [#184, N-[(3R,4S,5S)-1-{(2S)-2-[(1R,2R)-3-{[2-(cyclohepta-2,4,6-trien-1-yl)ethyl]amino}-1-methoxy-2-methyl-3-oxopropyl]pyrrolidin-1-yl}-3-methoxy-5-methyl-1-oxoheptan-4-yl]-N˜2˜-{[(3R)-3-fluoropyrrolidin-3-yl]carbonyl}-N-methyl-L-valinamide], the IC50 with BT474 (breast cancer) stood at 2.48 nM; in experiment [1], 3.43 nM; in the experiment on N87 (gastric cancer), 5.1 nM.
Take `CC[C@H](C)[C@@H]([C@@H](CC(=O)N1CCC[C@H]1[C@H](OC)[C@@H](C)C(=S)N[C@@H](Cc1ccccc1)C(=O)O)OC)N(C)C(=O)[C@@H](NC(=O)C(C)(C)NC)C(C)C` [#80, N,2-dimethylalanyl-N-[(3R,4S,5S)-1-{(2S)-2-[(1R,2R)-3-{[(1S)-1-carboxy-2-phenylethyl]amino}-1-methoxy-2-methyl-3-thioxopropyl]pyrrolidin-1-yl}-3-methoxy-5-methyl-1-oxoheptan-4-yl]-N-methyl-L-valinamide]: the IC50 in the experiment with BT474 (breast cancer) amounted to 20.3 nM; in experiment [1] it was 32.8 nM; in the experiment on N87 (gastric cancer) it was 28.2 nM.
In the case of `CC[C@H](C)[C@@H]([C@@H](CC(=O)N1CCC[C@H]1[C@H](OC)[C@@H](C)C(=O)N[C@@H](Cc1ccc2c(c1)CCCN2)C(=O)OC)OC)N(C)C(=O)[C@@H](NC(=O)[C@@]1(C)CCCN1C)C(C)C` [#200, 1,2-dimethyl-D-prolyl-N-[(3R,4S,5S)-3-methoxy-1-{(2S)-2-[(1R,2R)-1-methoxy-3-{[(2S)-1-methoxy-1-oxo-3-(1,2,3,4-tetrahydroquinolin-6-yl)propan-2-yl]amino}-2-methyl-3-oxopropyl]pyrrolidin-1-yl}-5-methyl-1-oxoheptan-4-yl]-N-methyl-L-valinamide], the IC50 stood at 0.048 nM in the experiment with BT474 (breast cancer), 0.017 nM in experiment [1] and 0.029 nM with N87 (gastric cancer).
Consider `CC[C@H](C)[C@@H]([C@@H](CC(=O)N1CCC[C@H]1[C@H](OC)[C@@H](C)C(=O)N[C@@H](Cc1ccccc1)C(=O)OC)OC)N(C)C(=O)[C@@H](NC(=O)[C@@]1(F)CCNC1)C(C)C` [#172, methyl N-{(2R,3R)-3-[(2S)-1-{(3R,4S,5S)-4-[(N-{[(3R)-3-fluoropyrrolidin-3-yl]carbonyl}-L-valyl)(methyl)amino]-3-methoxy-5-methylheptanoyl}pyrrolidin-2-yl]-3-methoxy-2-methylpropanoyl}-L-phenylalaninate], for which the 50% inhibitory concentration (IC50) amounted to 0.057 nM with BT474 (breast cancer), 0.086 nM in experiment [1] and 0.144 nM in the experiment with N87 (gastric cancer).
Take `CC[C@H](C)[C@@H]([C@@H](CC(=O)N1CCC[C@H]1[C@H](OC)[C@@H](C)C(=S)N[C@@H](Cc1ccccc1)C(=O)OC)OC)N(C)C(=O)[C@@H](NC(=O)[C@@H](NC)C(C)C)C(C)C` [#42, N-methyl-L-valyl-N-[(3R,4S,5S)-3-methoxy-1-{(2S)-2-[(1R,2R)-1-methoxy-3-{[(2S)-1-methoxy-1-oxo-3-phenylpropan-2-yl]amino}-2-methyl-3-thioxopropyl]pyrrolidin-1-yl}-5-methyl-1-oxoheptan-4-yl]-N-methyl-L-valinamide]: the IC50 came to 0.125 nM in the experiment with BT474 (breast cancer), 0.195 nM in experiment [1] and 0.327 nM with N87 (gastric cancer).
For `CC[C@H](C)[C@@H]([C@@H](CC(=O)N1CCC[C@H]1[C@H](OC)[C@@H](C)C(=O)N[C@@H](Cc1ccccc1)C(=O)OC(C)(C)C)OC)N(C)C(=O)[C@@H](NC(=O)C(C)(C)N)C(C)C` [#123, 2-methylalanyl-N-[(3R,4S,5S)-1-{(2S)-2-[(1R,2R)-3-{[(2S)-1-tert-butoxy-1-oxo-3-phenylpropan-2-yl]amino}-1-methoxy-2-methyl-3-oxopropyl]pyrrolidin-1-yl}-3-methoxy-5-methyl-1-oxoheptan-4-yl]-N-methyl-L-valinamide] (H-[Aib]V[Dil][Dolaproine]F-OtBu), in that order: 0.125 nM, 0.129 nM and 0.089 nM.
For `CC[C@H](C)[C@@H]([C@@H](CC(=O)N1CCC[C@H]1[C@H](OC)[C@@H](C)C(=S)N[C@@H](Cc1ccccc1)C(=O)O)OC)N(C)C(=O)[C@@H](NC(=O)C(C)(C)N)C(C)C` [#44, 2-methylalanyl-N-[(3R,4S,5S)-1-{(2S)-2-[(1R,2R)-3-{[(1S)-1-carboxy-2-phenylethyl]amino}-1-methoxy-2-methyl-3-thioxopropyl]pyrrolidin-1-yl}-3-methoxy-5-methyl-1-oxoheptan-4-yl]-N-methyl-L-valinamide], in that order: 7.12 nM, above 16.4 nM and 14.6 nM.
With `CC[C@H](C)[C@@H]([C@@H](CC(=O)N1CCC[C@H]1[C@H](OC)[C@@H](C)C(=O)N[C@@H](Cc1ccccc1)C(=O)N1CCNCC1)OC)N(C)C(=O)[C@@H](NC(=O)[C@]1(C)CCCN1C)C(C)C` [#245] (NMeαMePro-V[Dil][Dolaproine]F-{N(CH2CH2)2NH}), the IC50 in the experiment on BT474 (breast cancer) stood at 11.8 nM; in experiment [1] it was 31.9 nM; in the experiment on N87 (gastric cancer), 33 nM.
Consider `CC[C@H](C)[C@@H]([C@@H](CC(=O)N1CCC[C@H]1[C@H](OC)[C@@H](C)C(=O)N[C@@H](Cc1ccccc1)C(=O)OC)OC)N(C)C(=O)[C@@H](NC(=O)[C@@]1(C)CCCN1C)C(C)C` [#236] (X1-V[Dil][Dolaproine]F-OMe), for which the figures for the IC50 (with BT474 (breast cancer); in experiment [1]; in the experiment with N87 (gastric cancer)) were 0.02 nM, 0.01 nM and 0.023 nM, respectively.
In the case of `CC[C@H](C)[C@@H]([C@@H](CC(=O)N1CCC[C@H]1[C@H](OC)[C@@H](C)C(=S)N[C@@H](Cc1ccccc1)C(=O)O)OC)N(C)C(=O)[C@@H](NC(=O)[C@@H](NC)C(C)C)C(C)C` [#41, N-methyl-L-valyl-N-[(3R,4S,5S)-1-{(2S)-2-[(1R,2R)-3-{[(1S)-1-carboxy-2-phenylethyl]amino}-1-methoxy-2-methyl-3-thioxopropyl]pyrrolidin-1-yl}-3-methoxy-5-methyl-1-oxoheptan-4-yl]-N-methyl-L-valinamide], the IC50 in the experiment on BT474 (breast cancer) is 29.7 nM; in experiment [1], 51.8 nM; in the experiment on N87 (gastric cancer) it was 33.2 nM.
